Measured values taken from patent US5196427A, “3-aryl-4(3H) quinazolinone CCK antagonists and pharmaceutical formulations thereof” (Eli Lilly and Company, priority 1991, dated 1993).
Read-outs that look alike come from different tables or passages of the source.

How the values were obtained:
[1] = biological target: T1, peripheral type CCK receptors in rat pancreas (Rattus norvegicus, UniProt P30551); assay: Binding to peripheral type CCK receptors in rat pancreas (3H-L364,718); conditions: read-out: Pancreas % inhibition in binding assay
T1 construct: from tissue; host or cells: pancreas membranes of male Sprague-Dawley rats
T1 sequence (P30551 1-444): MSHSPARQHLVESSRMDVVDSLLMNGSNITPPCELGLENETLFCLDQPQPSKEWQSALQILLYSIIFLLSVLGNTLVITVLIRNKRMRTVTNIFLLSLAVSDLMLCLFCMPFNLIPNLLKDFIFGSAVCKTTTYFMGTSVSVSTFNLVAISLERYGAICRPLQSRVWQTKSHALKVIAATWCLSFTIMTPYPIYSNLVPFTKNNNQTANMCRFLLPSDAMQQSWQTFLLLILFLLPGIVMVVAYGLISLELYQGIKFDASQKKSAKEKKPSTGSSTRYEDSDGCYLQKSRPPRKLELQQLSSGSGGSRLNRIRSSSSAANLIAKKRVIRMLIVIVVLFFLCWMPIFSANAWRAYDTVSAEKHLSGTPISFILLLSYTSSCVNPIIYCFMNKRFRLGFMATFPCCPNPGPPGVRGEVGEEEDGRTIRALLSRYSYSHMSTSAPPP
Method: Binding to peripheral type CCK receptors in rat pancreas was done according to the method of Chang et al. (Mol. Pharmacol. 30: 212-217, 1986) using ^3 H-L364, 718. Pancreas was obtained from male & Sprague-Dawley rats, 150-200 g, after decapitation, and dissected free from adipose and connective tissue. The tissue was homogenized in 30 volumes of 50 mM Tris buffer, pH 7.4 and centrifuged at 40,000 g for 10 min. The tissue pellet was washed by resuspension and centrifugation as described above. The final pellet was suspended in 500 volumes of assay buffer (50 mM Tris buffer, pH 7.4, 5 mM MgC2, 0.14 mg/ml bacitracin, and 5 mM dithiothreitol) to give a protein concentration of 30-60 μg/200 μl. Reagent volumes for the assay were the same as those used for CCK binding to brain membranes. […] The samples were incubated 1 hour at room temperature and then filtered as described for the CCK-brain receptor. Scintillation cocktail was added to the filters which were counted for radioactivity using a Micromedic Taurus automatic liquid scintillation counter.
Compound samples were prepared and IC-50 values were determined as described for the CCK-brain experiments. Non-specific binding was that amount left bound to the filters after adding 100 nM L-364,718.

Brain CCK receptor = biological target: T2, Brain CCK receptor (Mus musculus, UniProt P56481); assay: Brain CCK receptor binding (mouse brain membranes, 125I-CCK-8 sulfate); conditions: for IC50: mouse brain membranes, Mean ± SEM, n = 3, values without SEM n = 1, read-out: Brain IC50
T2 construct: from tissue; host or cells: forebrain membranes of male CF-1 mice
T2 sequence (P56481 1-453): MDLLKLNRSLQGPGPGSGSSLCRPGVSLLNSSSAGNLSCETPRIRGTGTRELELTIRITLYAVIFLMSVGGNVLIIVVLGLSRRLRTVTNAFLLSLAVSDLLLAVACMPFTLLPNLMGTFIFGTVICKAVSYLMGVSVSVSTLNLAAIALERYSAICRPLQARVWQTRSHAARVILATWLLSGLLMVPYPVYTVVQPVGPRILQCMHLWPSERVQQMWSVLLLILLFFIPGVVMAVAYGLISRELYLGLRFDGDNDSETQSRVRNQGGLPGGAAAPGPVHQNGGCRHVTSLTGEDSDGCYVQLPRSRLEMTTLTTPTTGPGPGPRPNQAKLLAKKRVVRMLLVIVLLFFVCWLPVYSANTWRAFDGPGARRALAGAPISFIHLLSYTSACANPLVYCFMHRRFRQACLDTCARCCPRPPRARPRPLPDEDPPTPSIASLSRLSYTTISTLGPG
Method: Brain CCK receptor binding was performed using mouse brain membranes according to the method of Chang and Lotti (Proc. Natl. Acad. Sci. 83: 4923-4926, 1986). Male CF-1 mice, 23-25 g were sacrificed by cervical dislocation, the forebrain removed and placed in ice cold 50 mM Tris buffer, pH 7.4. The tissue was homogenized in 100 volumes of the Tris buffer with a Brinkman Polytron or Tekmar Tissumizer and then centrifuged at 40,000 g for 10 min. Pellets were resuspended in Tris buffer, centrifuged as above and then resuspended in 100 volumes of assay buffer, pH 6.5 (20 mM N-2-hydroxyethyl-piperazine-N'-2-ethane sulfonic acid (HEPES), 1 mM ethylene glycol bis(2-aminoethyl ether-N,N,N',N'-tetraaceticacid) (EGTA), 5 mM MgCl2, 130 mM NaCl, and 0.25 mg/ml bacitracin). The binding assay consisted of 50 μL of compound (or buffer for total binding), 50 μL of ^125 I-CCK-8 sulfate (20 pM) (Amersham IM-159), 200 μL of assay buffer and 200 μL of homogenate (80-120 μg protein). The samples were incubated at room temperature (25°) for 2 hours, and they were then filtered through GF/B glass fiber filters (soaked in wash buffer for 2 hours before use) using a 48 well Brandel cell harvester designed for receptor binding. The filters were washed twice with 3 ml of 50 mM Tris buffer, pH 7.4, containing 0.01% BSA and then counted for radioactivity in plastic tubes with a Micromedic 10/600 automatic gamma counter.
Compounds were dissolved in dimethyl sulfoxide (DMSO) at a concentration of 10 mM and then further diluted with assay buffer. […] IC-50 values of displacement curves were determined using 7 concentrations of compound and were calculated using the ALLFIT computer program of DeLean, Munson and Rodbard (Am. J. Physiol. 235: E97-E102, 1978). Non-specific binding was determined as the displacement of the radioligand by 100 nM CCK-8 sulfate.

Gastrin receptor = biological target: T3, Gastrin receptor (Cavia porcellus, UniProt H0VZC5); assay: Gastrin binding to guinea pig stomach mucosal membranes (125I-gastrin I); conditions: Mean ± SEM, n = 3
T3 construct: from tissue; host or cells: stomach fundus mucosal membranes of male Hartley guinea pigs
T3 sequence (H0VZC5 1-426): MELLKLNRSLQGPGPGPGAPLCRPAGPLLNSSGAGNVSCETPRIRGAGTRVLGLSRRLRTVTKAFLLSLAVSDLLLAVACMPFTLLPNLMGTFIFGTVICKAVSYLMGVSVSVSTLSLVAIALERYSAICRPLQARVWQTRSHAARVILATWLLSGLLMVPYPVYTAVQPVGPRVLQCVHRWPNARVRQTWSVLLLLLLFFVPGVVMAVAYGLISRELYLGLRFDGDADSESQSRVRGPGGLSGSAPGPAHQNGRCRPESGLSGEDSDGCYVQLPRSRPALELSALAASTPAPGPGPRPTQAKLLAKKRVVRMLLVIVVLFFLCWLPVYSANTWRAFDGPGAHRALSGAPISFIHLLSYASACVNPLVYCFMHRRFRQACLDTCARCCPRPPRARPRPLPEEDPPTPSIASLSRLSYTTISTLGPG
Method: The method used for gastrin binding to guinea pig stomach mucosal membranes was similar to that described by Takeuchi, Speir and Johnson (Am. J. Physiol. 237(3): E284-E294, 1979). Guinea pig stomach […] was obtained from male Hartley guinea pigs, 300-350 g, and the mucosa was scraped off with a glass The mucosa was homogenized in 50 mM Tris buffer, pH 7.4, containing 1 mM phenylmethanesulfonyl fluoride using a Dounce glass homogenizer, and the suspension was centrifuged at 40,000 g for 10 min. The resulting pellet was resuspended and centrifuged once more, the final pellet was then suspended in 100 ml assay buffer per 1 guinea pig stomach to give a protein concentration of 200-300 μg/200 μl. The assay buffer consisted of 50 mM Tris buffer, pH 7.4, 5 mM MgC2, 0.14 mg/ml bacitracin, and 1 μg/ml each of leupeptin, chymostatin, aprotinin and pepstatin. Reagent volumes for the assay were the same as those used for CCK binding to brain membranes. The radioactive ligand was 20 pM ^125 I-gastrin I, from DuPont NEN (NEX-176). The samples were incubated 3 hours at room temperature and filtered and counted as described for CCK binding to brain membranes. Compound samples were prepared and IC-50 values were determined as described for the CCK-brain receptor binding. Non-specific binding was determined using 100 nM gastrin I (human synthetic from Sigma Chemical Co.).

| SMILES | inhibition at 10 µM [1] | IC50 (Brain CCK receptor) | inhibition at 10 µM ([1]; rat pancreas, 10 μM) | IC50 (Gastrin receptor) | inhibition at 10 µM (Brain CCK receptor; read-out: Brain % inhibition in binding assay, mouse brain membranes, 10 μM) |
| --- | --- | --- | --- | --- | --- |
| O=c1c2ccccc2nc(CCc2c[nH]c3ccccc23)n1-c1ccccc1 [Example 1, 2-[2-(3-indolyl)ethyl]-3-phenyl-4-(3H)quinazolinone] | 37% | 670 ± 150 nM | – | – | – |
| CC(C)Oc1cccc(-n2c(CCc3c[nH]c4ccc(Br)cc34)nc3ccccc3c2=O)c1 [Example 4, 2-[2-(5-Bromoindol-3-yl)ethyl]-3-(3-isopropoxyphenyl)-4-quinazolinone] | – | – | -1.4% | – | – |
| O=c1c2ccccc2nc(CCc2c[nH]c3ccccc23)n1-c1cccc(F)c1 [Example 12] | 11% | 730 ± 170 nM | – | – | – |
| O=c1c2ccccc2nc(CCc2c[nH]c3ccccc23)n1-c1cccc(Cl)c1 [Example 13] | 17% | 690 ± 160 nM | – | – | – |
| Cc1cccc(-n2c(CCc3c[nH]c4ccccc34)nc3ccccc3c2=O)c1 [Example 14] | 0.6% | 150 ± 10 nM | – | – | – |
| O=c1c2ccccc2nc(CCc2c[nH]c3ccccc23)n1-c1cccc(Br)c1 [Example 15] | – | 370 ± 30 nM | -5.7% | – | – |
| O=c1c2ccccc2nc(CCc2c[nH]c3ccc(Cl)cc23)n1-c1cccc(Br)c1 [Example 16] | – | 190 nM | 2% | – | – |
| COc1cccc(-n2c(CCc3c[nH]c4ccccc34)nc3ccccc3c2=O)c1 [Example 17] | 16% | 160 ± 30 nM | – | – | – |
| COc1cccc(-n2c(CCc3c[nH]c4ccc(Br)cc34)nc3ccccc3c2=O)c1 [Example 20] | – | – | 5.3% | – | – |
| CCOc1cccc(-n2c(CCc3c[nH]c4ccc(Br)cc34)nc3ccccc3c2=O)c1 [Example 23] | – | 34 ± 7 nM | -14% | – | – |
| CCc1cccc(-n2c(CCc3c[nH]c4ccccc34)nc3ccccc3c2=O)c1 [Example 28] | 2.6% | 72 ± 1 nM | – | – | – |
| CCc1cccc(-n2c(CCc3c[nH]c4ccc(Br)cc34)nc3ccccc3c2=O)c1 [Example 29] | – | 46 ± 10 nM | -4.5% | 1100 ± 200 nM | – |
| CCc1cccc(-n2c(CCc3c[nH]c4ccc(Cl)cc34)nc3ccccc3c2=O)c1 [Example 30] | – | 30 nM | -9.1% | – | – |
| CCc1cccc(-n2c(CCc3c[nH]c4ccc(OC)cc34)nc3ccccc3c2=O)c1 [Example 31] | – | 22 nM | 11% | – | – |
| COc1ccc(-n2c(CCc3c[nH]c4ccc(Br)cc34)nc3ccccc3c2=O)cc1 [Example 52] | – | 31 ± 6 nM | 0.3% | – | – |
| O=c1c2ccccc2nc(CCCc2c[nH]c3ccccc23)n1-c1ccccc1 [Example 62] | – | – | 11% | – | 20% |
| CCc1cccc(-n2c(CC(C)c3c[nH]c4ccc(Br)cc34)nc3ccccc3c2=O)c1 (stereo not drawn) [Example 64] | – | 100 ± 10 nM | – | 1600 ± 100 nM | – |
